Measured values from patent US9260439B2, “Dihydropyrrolopyrimidine derivatives” (PFIZER INC., priority 2014, dated 2016).

Experiments:
[1] = molecular target: full-length PI3Kα (full-length p110α/p85α) (Homo sapiens (Human), UniProt P42336); test: PI3KA_FL fluorescence polarization kinase assay (Ki); assay type: biochemical; conditions: 41 μM ATP
Source text: Enzyme Production for Biochemical Assays: 1) PI3Kα Complex (Full Length p110α and p85α)(“PI3KA_FL”)
Genes encoding for full length p110α and p85α subunits of PI3Kα complex were subcloned from existing constructs into pFASTBAC Dual vector (Life Technologies, Carlsbad, Calif.) using standard cloning procedures. Gene encoding p110α subunit was subcloned into polyhedrine promoter while gene encoding p85α subunit was subcloned into p10 promoter. Additionally, sequence encoding for histidine tag and Tobacco Etch Virus (“TEV”) cleavage site preceded p110α ORF (Open Reading Frame). Recombinant baculovirus was generated using Bac-to-Bac protocol (Life Technologies, Carlsbad, Calif.) and large scale expression was conducted in Sf21 (Life Technologies, Carlsbad, Calif.) cells at a multiplicity of infection (“MOI”)=1 for 72 hours. Cells were lyzed in 50 mM Tris pH 8.0, 250 mM NaCl, 5% glycerol, 0.25 mM TCEP, and 20 mM imidazole. The PI3Kα complex was purified from clarified supernatant using Immobilized Metalo Affinity Chromatography (“IMAC”). The protein was eluted from the column using 50 mM Tris pH 8.0, 200 mM NaCl, 5% glycerol, 0.25 mM TCEP, and 200 mM imidazole, and further desalted into 50 mM Tris pH 8.0, 20 mM NaCl, and 0.25 mM TCEP prior to loading on MonoQ sepharose (GE Healthcare, Piscataway, N.J.). PI3Kα complex was eluted from MonoQ sepharose over 20 column volumes using 0-30% gradient of buffer B (50 mM Tris pH 8.0, 1 M NaCl, and 0.25 mM TCEP). The peak fractions were pulled together and loaded on Superdex 200 26/60 SEC column equilibrated in 50 mM Tris pH 8.0, 200 mM NaCl, and 0.5 mM TCEP. […] Purity and integrity of the complex was confirmed using LCMS, analytical SEC and SDS-PAGE (sodium dodecyl sulfate polyacrylamide gel electrophoresis) analysis.
The biochemical assays of kinase activity of full-length PI3Kα (full-length p110α/p85a) or truncated PI3Kα (p110α/iSH2 p85a) were conducted using a fluorescence polarization format similar to the procedure of Yuan J., et al., (2011) “PF-04691502, a Potent and Selective Oral Inhibitor of PI3K and mTOR Kinases with Antitumor Activity”, Mol Cancer Ther. 10, 2189-2199. The enzymatic reactions were conducted in 50 μL volumes in 96-well plates. The reactions contained human recombinant PI3Kα (2 nM full-length p110α/p85α or 0.5 nM p110α/iSH2 p85) and 30 μM phosphatidylinositol 4,5-bisphosphate (“PIP2”) (Cayman Chemical Company, Ann Arbor, Mich.) and were sonicated for 1 minute prior to adding PI3Kα enzyme (PI3KA_Act or PI3KA_FL), DMSO or test compound (12-point 3-fold serial dilution, 3 μM top dose, 2° A) DMSO final concentration), 5 mM MgCl2, 50 mM HEPES pH 7.4, 150 mM NaCl, 1 mM DTT ((2S,3S)-1,4-bis(sulfanyl)butane-2,3-diol), and 0.05% 3-[(3-cholamidopropyl)dimethylammonio]-1-propanesulfonate (“CHAPS”). […] The reactions were incubated for 30 min at room temperature, stopped with EDTA pH 8 (10 mM final concentration). In a detection plate, 15 μL of detector/probe mixture, containing 480 nM GST-Grp1 PH domain protein (University of Dundee, Dundee, UK) and 12 nM carboxytetramethylrhodamine (“TAMRA”)-tagged fluorescent phosphatidylinositol (3,4,5)-triphosphate (“PIP3”) (Echelon Biosciences, Inc., Salt Lake City, Utah) in assay buffer, was mixed with 15 μL of kinase reaction mixture. The plate was shaken for 30 minutes and fluorescence polarization values were measured on an LJL Analyst HT plate reader (Molecular Devices, Sunnyvale, Calif.). […] The inhibition constants (Ki) were calculated by fitting fluorescence polarization values, corresponding to initial reaction rates, to the Morrison equation (Morrison, J. F. (1969) Kinetics of the reversible inhibition of enzyme catalysed reactions by tight-binding inhibitors. Biochim. Biophys. Acta 185, 269-286) for tight-binding competitive inhibitors using non-linear regression method (GraphPad Prism, GraphPad Software, San Diego, Calif.).

[2] = molecular target: truncated PI3Kα (p110α/iSH2 p85α) (Homo sapiens (Human), UniProt P42336); test: PI3KA_Act fluorescence polarization kinase assay (Ki); assay type: biochemical; conditions: 1 mM ATP
Chain of truncated PI3Kα (p110α/iSH2 p85α) (P42336 whole entry, the tested form may be a part): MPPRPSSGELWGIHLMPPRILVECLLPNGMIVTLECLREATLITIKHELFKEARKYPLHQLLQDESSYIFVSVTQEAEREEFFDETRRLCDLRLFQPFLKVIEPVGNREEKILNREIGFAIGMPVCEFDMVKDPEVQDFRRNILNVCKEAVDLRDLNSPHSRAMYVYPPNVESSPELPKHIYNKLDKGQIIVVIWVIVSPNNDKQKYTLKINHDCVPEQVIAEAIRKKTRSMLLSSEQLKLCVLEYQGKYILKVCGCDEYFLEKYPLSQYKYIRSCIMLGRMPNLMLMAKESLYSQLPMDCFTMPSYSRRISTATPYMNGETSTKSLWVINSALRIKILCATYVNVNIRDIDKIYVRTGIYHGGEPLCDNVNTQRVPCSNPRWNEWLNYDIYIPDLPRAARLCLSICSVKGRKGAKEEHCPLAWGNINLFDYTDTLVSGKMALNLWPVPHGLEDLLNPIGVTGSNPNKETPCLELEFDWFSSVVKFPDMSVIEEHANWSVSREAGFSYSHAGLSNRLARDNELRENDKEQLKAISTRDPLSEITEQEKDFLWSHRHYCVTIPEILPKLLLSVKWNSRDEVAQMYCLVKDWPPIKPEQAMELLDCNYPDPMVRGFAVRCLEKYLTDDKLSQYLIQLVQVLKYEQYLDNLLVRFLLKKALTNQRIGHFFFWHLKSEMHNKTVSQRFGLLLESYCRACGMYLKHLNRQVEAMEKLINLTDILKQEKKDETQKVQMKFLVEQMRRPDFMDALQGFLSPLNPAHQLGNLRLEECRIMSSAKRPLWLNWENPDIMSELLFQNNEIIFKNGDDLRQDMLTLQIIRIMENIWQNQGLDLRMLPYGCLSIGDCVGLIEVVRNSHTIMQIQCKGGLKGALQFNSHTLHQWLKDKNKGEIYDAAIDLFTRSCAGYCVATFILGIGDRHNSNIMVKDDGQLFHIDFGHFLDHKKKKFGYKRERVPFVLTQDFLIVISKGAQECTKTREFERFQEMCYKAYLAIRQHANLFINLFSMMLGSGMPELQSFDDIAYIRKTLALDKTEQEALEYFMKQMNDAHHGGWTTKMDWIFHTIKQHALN
How it was run: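 Ki values result from fitting fluorescence polarization signals to the Morrison equation for tight-binding competitive inhibitors. The detector was GST-Grp1 PH domain with TAMRA-PIP3, read after a 30 min room-temperature reaction of 0.5 nM truncated PI3Kα and 30 μM PIP2 at pH 7.4 in HEPES/NaCl/MgCl2/DTT/CHAPS buffer. Compounds were tested as 12-point 3-fold dilutions from 3 μM.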

Chain of full-length PI3Kα (full-length p110α/p85α) (P42336 whole entry): as the sequence (P42336 whole entry, the tested form may be a part) above
Chain of full-length PI3Kα (full-length p110α/p85α) (P27986 whole entry partner): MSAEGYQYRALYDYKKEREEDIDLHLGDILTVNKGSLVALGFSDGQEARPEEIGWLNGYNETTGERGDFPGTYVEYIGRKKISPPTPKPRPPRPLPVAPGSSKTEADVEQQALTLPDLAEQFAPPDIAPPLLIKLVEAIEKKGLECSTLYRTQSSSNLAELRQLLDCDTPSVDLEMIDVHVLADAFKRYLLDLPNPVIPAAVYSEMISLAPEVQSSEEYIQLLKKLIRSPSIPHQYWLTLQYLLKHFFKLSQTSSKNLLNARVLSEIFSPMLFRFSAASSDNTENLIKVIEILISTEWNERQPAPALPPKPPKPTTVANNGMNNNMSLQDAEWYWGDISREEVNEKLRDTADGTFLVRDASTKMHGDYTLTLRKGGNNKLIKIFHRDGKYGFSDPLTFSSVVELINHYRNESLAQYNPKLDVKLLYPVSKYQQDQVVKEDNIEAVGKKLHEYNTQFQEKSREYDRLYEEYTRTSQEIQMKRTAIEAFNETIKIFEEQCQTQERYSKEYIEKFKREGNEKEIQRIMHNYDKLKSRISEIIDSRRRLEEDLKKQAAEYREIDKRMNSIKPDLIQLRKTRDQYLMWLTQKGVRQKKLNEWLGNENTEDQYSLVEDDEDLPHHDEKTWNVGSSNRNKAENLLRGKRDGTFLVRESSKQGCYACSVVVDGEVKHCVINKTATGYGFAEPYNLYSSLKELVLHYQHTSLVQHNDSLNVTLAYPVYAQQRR

Row | SMILES | PI3KA_FL Ki (nM) [1] | PI3KA_Act Ki [2] | PI3KA_FL Ki [1]
1 | CC1(N2CCc3c(-c4cnc(N)nc4)nc(N4CCOCC4)nc32)CCN(S(C)(=O)=O)C1 (racemic) [Example 146] | ≦0.229 nM | 0.015 nM | –
2 | Nc1ncc(-c2nc(N3CCOCC3)nc3c2CCN3[C@H]2CCC(F)(F)C2)cn1 (single isomer, unassigned) [Example 34] | – | 0.730 nM | 0.469 nM
3 | Nc1ncc(-c2nc(N3CCOCC3)nc3c2CCN3[C@@H]2CCC(F)(F)C2)cn1 (single isomer, unassigned) [Example 35] | – | 0.311 nM | 0.393 nM
4 | CC(=O)N1C[C@@H](F)[C@@H](N2CCc3c(-c4cnc(N)nc4)nc(N4CCOCC4)nc32)C1 (single isomer, unassigned) [Example 74] | – | 2.441 nM | 5.079 nM
5 | CC(C)S(=O)(=O)N1CC(N2CCc3c(-c4cnc(N)nc4)nc(N4CCOC[C@@H]4C)nc32)C1 [Example 1, 5-{2-[(3S)-3-methylmorpholin-4-yl]-7-[1-(propan-2-ylsulfonyl)azetidin-3-yl]-6,7-dihydro-5H-pyrrolo[2,3-d]pyrimidin-4-yl}pyrimidin-2-amine] | ≦0.229 nM | 0.102 nM | –
6 | Nc1ncc(-c2nc(N3CCOCC3)nc3c2CCN3C2CC(F)(F)C2)cn1 [Example 13] | – | 0.211 nM | 0.307 nM
7 | CS(=O)(=O)N1CC[C@H](N2CCc3c(-c4cnc(N)nc4)nc(N4CCOCC4)nc32)C1 [Example 20] | ≦0.229 nM | 0.153 nM | –
8 | CNS(=O)(=O)N1CC[C@H](N2CCc3c(-c4cnc(N)nc4)nc(N4CCOCC4)nc32)C1 [Example 38] | – | 0.124 nM | 0.228 nM
9 | CNS(=O)(=O)N(C)[C@H]1C[C@H](N2CCc3c(-c4cnc(N)nc4)nc(N4CCOCC4)nc32)C1 [Example 46] | – | 0.187 nM | 0.412 nM
10 | CNS(=O)(=O)N(C)[C@H]1C[C@@H](N2CCc3c(-c4cnc(N)nc4)nc(N4CCOCC4)nc32)C1 [Example 57] | – | 0.465 nM | 0.318 nM
11 | N#C[C@H]1C[C@H](N2CCc3c(-c4cnc(N)nc4)nc(N4CCOCC4)nc32)C1 [Example 59] | ≦0.229 nM | 0.122 nM | –
12 | COC(=O)N1CC(N2CCc3c(-c4cnc(N)nc4)nc(N4CCOCC4)nc32)C1 [Example 61] | – | 0.235 nM | 0.234 nM
13 | Nc1ncc(-c2nc(N3CCOCC3)nc3c2CCN3C2CN(S(N)(=O)=O)C2)cn1 [Example 72] | ≦0.229 nM | 0.129 nM | –
14 | CS(=O)(=O)N1CC(N2CCc3c(-c4cnc(N)nc4)nc(N4CCOCC4)nc32)C1 [Example 73] | – | 0.303 nM | 0.350 nM
15 | C[C@H]1COCCN1c1nc(-c2cnc(N)nc2)c2c(n1)N([C@H]1CCN(C(=O)OC(C)(C)C)C1)CC2 [Example 76] | – | 0.182 nM | 0.359 nM
16 | C[C@H]1COCCN1c1nc(-c2cnc(N)nc2)c2c(n1)N([C@H]1CCN(S(C)(=O)=O)C1)CC2 [Example 79] | ≦0.229 nM | 0.257 nM | –
17 | CN(C)S(=O)(=O)N1CC[C@H](N2CCc3c(-c4cnc(N)nc4)nc(N4CCOCC4)nc32)C1 [Example 82] | – | 0.100 nM | 0.240 nM
18 | CNS(=O)(=O)N1CC[C@@H](N2CCc3c(-c4cnc(N)nc4)nc(N4CCOC[C@@H]4C)nc32)C1 [Example 85] | – | 0.239 nM | 0.283 nM
19 | CNS(=O)(=O)N1CC[C@@H](N2CCc3c(-c4cnc(N)nc4)nc(N4CCOC[C@@H]4C)nc32)C1 [Example 92] | – | 0.376 nM | 0.475 nM
20 | CS(=O)(=O)N1CCC[C@@H](N2CCc3c(-c4cnc(N)nc4)nc(N4CCOCC4)nc32)C1 [Example 93] | – | 0.603 nM | 0.506 nM

Row | SMILES | PI3KA_FL Ki (nM) [1] | PI3KA_Act Ki [2] | PI3KA_FL Ki [1]
21 | CNS(=O)(=O)O[C@H]1C[C@H](N2CCc3c(-c4cnc(N)nc4)nc(N4CCOCC4)nc32)C1 [Example 95] | ≦0.229 nM | 0.078 nM | –
22 | CO[C@@H]1CN(C(C)=O)C[C@H]1N1CCc2c(-c3cnc(N)nc3)nc(N3CCOC[C@@H]3C)nc21 [Example 98] | – | – | 1.244 nM
23 | CS(=O)(=O)N1CCC[C@H](N2CCc3c(-c4cnc(N)nc4)nc(N4CCOCC4)nc32)C1 [Example 99] | – | – | 2.122 nM
24 | CO[C@@H]1CN(S(C)(=O)=O)C[C@H]1N1CCc2c(-c3cnc(N)nc3)nc(N3CCOC[C@@H]3C)nc21 [Example 103] | – | – | 0.557 nM
25 | CS(=O)(=O)N[C@H]1C[C@@H](N2CCc3c(-c4cnc(N)nc4)nc(N4CCOCC4)nc32)C1 [Example 107] | – | – | 1.388 nM
26 | CN(C)S(=O)(=O)N1CC(N2CCc3c(-c4cnc(N)nc4)nc(N4CCOCC4)nc32)C1 [Example 110] | – | – | 0.735 nM
27 | CCS(=O)(=O)N1CC[C@@H](N2CCc3c(-c4cnc(N)nc4)nc(N4CCOCC4)nc32)C1 [Example 112] | – | – | 0.491 nM
28 | CS(=O)(=O)[C@H]1CC[C@@H](N2CCc3c(-c4cnc(N)nc4)nc(N4CCOCC4)nc32)C1 [Example 114] | – | – | 1.268 nM
29 | CC(C)S(=O)(=O)N1CC(N2CCc3c(-c4cnc(N)nc4)nc(N4CCOCC4)nc32)C1 [Example 116] | – | – | 0.961 nM
30 | CC(C)OC(=O)N1CC[C@H](N2CCc3c(-c4cnc(N)nc4)nc(N4CCOC[C@@H]4C)nc32)C1 [Example 124] | – | – | 0.333 nM
31 | C[C@H]1COCCN1c1nc(-c2cnc(N)nc2)c2c(n1)N([C@@H]1CN(S(N)(=O)=O)C[C@H]1O)CC2 [Example 127] | – | – | 0.789 nM
32 | CN(C)S(=O)(=O)[C@H]1CC[C@@H](N2CCc3c(-c4cnc(N)nc4)nc(N4CCOCC4)nc32)C1 [Example 129] | – | – | 0.380 nM
33 | CNS(=O)(=O)[C@H]1CC[C@@H](N2CCc3c(-c4cnc(N)nc4)nc(N4CCOCC4)nc32)C1 [Example 130] | – | – | 0.352 nM
34 | COCCOC(=O)N1CC[C@H](N2CCc3c(-c4cnc(N)nc4)nc(N4CCOC[C@@H]4C)nc32)C1 [Example 133] | – | – | 0.468 nM
35 | CC(C)N1CCc2c(-c3cnc(N)nc3)nc(N3CCOCC3)nc21 [Example 134] | – | – | 3.883 nM
36 | CC(C)(C)NC(=O)N1CC[C@@H](N2CCc3c(-c4cnc(N)nc4)nc(N4CCOCC4)nc32)C1 [Example 135] | – | – | 5.159 nM
37 | Nc1ncc(-c2nc(N3CCOCC3)nc3c2CCN3[C@@H]2CC[C@H](S(N)(=O)=O)C2)cn1 [Example 137] | – | – | 0.664 nM
38 | C[C@H]1COCCN1c1nc(-c2cnc(N)nc2)c2c(n1)N([C@@H]1CCN(C(=O)NC(C)(C)C)C1)CC2 [Example 138] | – | – | 5.547 nM
39 | CC(C)(C)NC(=O)N1CC[C@H](N2CCc3c(-c4cnc(N)nc4)nc(N4CCOCC4)nc32)C1 [Example 139] | – | – | 0.596 nM
